Common to all, as to assay: NCI-60 cell line screen, 48 h
For experiment [1], the system named is HCC-2998 colon.
The test system of experiment [2] is HCT-15 colon.
The subject of experiment [3] is MCF7 breast.
Experiment [4] deals with NCI-H23 lung.
The subject of experiment [5] is OVCAR-3 ovarian.
Experiment [6] relates to SK-OV-3 ovarian.
The subject of experiment [7] is T-47D breast.
In experiment [8] the test system is TK-10 renal.
Experiment [9] has as its system UACC-257 melanoma.

Each structure is given as a SMILES string.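 Tested at 5 concentrations; 48 h exposure; 96-well plates; endpoints linearly interpolated, else capped at highest concentration. At the TGI there is no net growth.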

On to `C(=C\c1ccccc1)/COc1ccccc1C(N1CCOCC1)n1nc2ccccc2n1` (stereo not given), for which the TGI in experiment [1] was 34.8 µM; in experiment [2] it was 11.7 µM; in [3], 6.57 µM; in experiment [4], 24.6 µM; in experiment [5], 7.04 µM; in [6], 81.1 µM. For the same molecule, the TGI in experiment [7] is 43.8 µM; in [8], 32.4 µM; in experiment [9], 25.5 µM.
For `O=C(CC(=O)Nc1ccccc1)NNC(c1cc(N=Nc2ccc(Br)cc2)ccc1O)P(O)O` (stereo not given), the TGI in experiment [1], in [2], in experiment [3], in experiment [4], in experiment [5] and in experiment [6] was > 10 µM throughout. In addition, the TGI in experiment [7], in experiment [8] and in [9] was > 10 µM throughout.
On to `CCOC(=O)C1CCC(=O)N1C(=O)c1ccccc1Cl` (stereo not given), for which the TGI in experiment [1], in experiment [2], in experiment [3], in experiment [4], in experiment [5] and in experiment [7] was > 100 µM in each case. Besides, the TGI in [8] and in [9] was > 100 µM each time.
On to `CCOC(=O)c1ccc(Nc2nc3ccc(C(F)(F)F)cc3nc2C(=O)OCC)cc1`, for which the TGI in experiment [1], in [2], in experiment [3], in experiment [4], in [5] and in [6] was > 100 µM throughout. Besides, the TGI in experiment [7], in experiment [8] and in experiment [9] was > 100 µM throughout.
On to `c1ccc([P+](CCCCCCCC[P+](c2ccccc2)(c2ccccc2)c2ccccc2)(c2ccccc2)c2ccccc2)cc1`, for which the TGI was > 100 µM in experiment [1]; > 100 µM in experiment [2]; > 87.5 µM in experiment [3]; > 52.8 µM in experiment [4]; > 100 µM in experiment [5]; > 100 µM in experiment [6]. The TGI is > 100 µM in experiment [7], > 73.7 µM in experiment [8] and > 37.7 µM in [9].
Regarding `COc1ccc(C2c3cc4c(cc3OC(NCCO)C2C)OCO4)cc1` (stereo not given), the TGI is 66 µM in experiment [1]; 54.4 µM in experiment [2]; 66.7 µM in [3]; > 100 µM in experiment [4]; 36.4 µM in [5]; 87.6 µM in [6]. Moreover, the TGI was > 100 µM in [7], 66.1 µM in experiment [8] and 72.4 µM in experiment [9].
Consider `C[C@H]1[C@H](C)CC[C@]2(C(=O)OC3OC(CO)C(O)C(O)C3O)CC[C@]3(C)C(=CC[C@@H]4[C@@]5(C)C[C@H]6OC(=O)c7cc(O)c(O)c(O)c7-c7c(cc(O)c(O)c7O)C(=O)O[C@@H]6C(CO)(CO)[C@@H]5CC[C@]43C)[C@H]12` (stereo not given in full), for which the TGI in experiment [1] is > 100 µM; in [2], > 100 µM; in [3] it was 38.5 µM; in experiment [4] it was > 100 µM; in experiment [5] it was > 71.5 µM; in experiment [6], > 100 µM. Besides, the TGI in experiment [7], in experiment [8] and in experiment [9] was > 100 µM each time.
Take `COc1nc2c(N3CCCC3)nc(N3CCNCC3)nc2nc1NCc1ccccc1`: the TGI in experiment [1] is 2.79 µM; in experiment [2], 3.82 µM; in experiment [3], 3.46 µM; in experiment [4], 5.88 µM; in experiment [5] it was 2.42 µM; in [6], 4.68 µM. Further, the TGI in [7] came to 3.19 µM; in [8] it was 5.78 µM; in experiment [9] it was 3.35 µM.
On to `COC(=O)[C@H](Cc1ccccc1)NC(=O)N(CCC#N)CCN(C(=O)N[C@@H](Cc1ccccc1)C(=O)OC)c1ccccc1`, for which the TGI was > 100 µM in experiment [1]; > 100 µM in [2]; > 100 µM in experiment [3]; 93.6 µM in [4]; 43.4 µM in [5]; > 100 µM in [6]. Besides, the TGI was determined as 41.6 µM in experiment [7], 41.6 µM in [8] and 37.5 µM in experiment [9].
For the molecule `COC1C(O)C(O[C@H]2CC[C@@]3(C)C(CC[C@@H]4[C@@H]3CC[C@]3(C)[C@@H](C(C)OC5OC(CO)C(O)C(O)C5O)CC[C@]43O)C2)OC(C)C1OC1OC(CO)C(O)C(O)C1O` (stereo not given in full), the TGI in experiment [1], in experiment [2], in experiment [3], in experiment [4], in experiment [5] and in experiment [6] was > 100 µM throughout. For the same molecule, the TGI in experiment [7], in experiment [8] and in experiment [9] was > 100 µM each time.
With `Clc1nncc2sc(-c3ccccc3)nc12`, the TGI in experiment [1] was > 45.7 µM; in [2], 36.4 µM; in experiment [3], > 92.6 µM; in experiment [4] it was 52.9 µM; in [5], 33.8 µM; in experiment [6] it was 80.6 µM. Further, the TGI in experiment [7] is > 100 µM; in experiment [8], > 100 µM; in [9], 56.7 µM.
Turning to `Cc1cc(NS(=O)(=O)c2ccc(NC(NC(=O)C(C(F)(F)F)C(F)(F)F)(C(F)(F)F)C(F)(F)F)cc2)no1`, the TGI in [1], in experiment [2], in experiment [3], in [4], in experiment [5] and in [6] was > 100 µM throughout. The TGI in experiment [7], in experiment [8] and in experiment [9] was > 100 µM throughout.
On to `O=C(/C=C/c1ccc2c(c1)OCO2)Cc1nc2ccccc2[nH]c1=O`, for which the TGI in experiment [1] was 86.8 µM; in [2] it was > 100 µM; in experiment [3], > 100 µM; in experiment [4] it was > 100 µM; in experiment [5] it was 81.5 µM; in [6] it was 33.5 µM. Moreover, the TGI in experiment [7] stood at 34.2 µM; in experiment [8], 34.2 µM; in [9] it was 59.5 µM.
Turning to `O=S1SC(=S)C2C=CC=CC21` (stereo not given), the TGI in experiment [1], in experiment [2], in [3], in [4], in [5] and in [6] was > 100 µM each time. In addition, the TGI in [7], in [8] and in [9] was > 100 µM in each case.

The record behind these values is PubChem BioAssay (NCI).
